Literature values, collected in article PMC3206815, “An Essential Farnesylated Kinesin in Trypanosoma brucei” (PLoS ONE, 2011).

Molecular target: T1, TB-PFT (T. brucei protein farnesyl transferase) (Trypanosoma brucei, UniProt Q57U08+Q580J3)
T1 construct: gene Tb07.8P12.660; heterodimer
T1 sequence (Q57U08 1-585): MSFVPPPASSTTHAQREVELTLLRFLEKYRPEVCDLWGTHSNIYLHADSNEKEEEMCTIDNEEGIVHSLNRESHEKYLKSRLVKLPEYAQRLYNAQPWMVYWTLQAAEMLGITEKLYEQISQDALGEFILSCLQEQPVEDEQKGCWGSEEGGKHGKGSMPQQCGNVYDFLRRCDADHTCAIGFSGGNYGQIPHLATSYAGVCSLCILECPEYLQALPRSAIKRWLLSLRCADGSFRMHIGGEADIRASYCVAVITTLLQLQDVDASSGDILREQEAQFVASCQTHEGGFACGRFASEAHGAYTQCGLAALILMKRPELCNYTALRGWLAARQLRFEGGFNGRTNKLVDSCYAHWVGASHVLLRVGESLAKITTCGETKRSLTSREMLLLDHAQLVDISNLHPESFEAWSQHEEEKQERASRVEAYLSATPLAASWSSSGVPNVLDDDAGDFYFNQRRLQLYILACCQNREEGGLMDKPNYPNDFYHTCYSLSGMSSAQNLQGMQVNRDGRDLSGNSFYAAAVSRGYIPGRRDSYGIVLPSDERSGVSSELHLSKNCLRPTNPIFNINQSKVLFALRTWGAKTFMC
T1 sequence (Q580J3 1-612): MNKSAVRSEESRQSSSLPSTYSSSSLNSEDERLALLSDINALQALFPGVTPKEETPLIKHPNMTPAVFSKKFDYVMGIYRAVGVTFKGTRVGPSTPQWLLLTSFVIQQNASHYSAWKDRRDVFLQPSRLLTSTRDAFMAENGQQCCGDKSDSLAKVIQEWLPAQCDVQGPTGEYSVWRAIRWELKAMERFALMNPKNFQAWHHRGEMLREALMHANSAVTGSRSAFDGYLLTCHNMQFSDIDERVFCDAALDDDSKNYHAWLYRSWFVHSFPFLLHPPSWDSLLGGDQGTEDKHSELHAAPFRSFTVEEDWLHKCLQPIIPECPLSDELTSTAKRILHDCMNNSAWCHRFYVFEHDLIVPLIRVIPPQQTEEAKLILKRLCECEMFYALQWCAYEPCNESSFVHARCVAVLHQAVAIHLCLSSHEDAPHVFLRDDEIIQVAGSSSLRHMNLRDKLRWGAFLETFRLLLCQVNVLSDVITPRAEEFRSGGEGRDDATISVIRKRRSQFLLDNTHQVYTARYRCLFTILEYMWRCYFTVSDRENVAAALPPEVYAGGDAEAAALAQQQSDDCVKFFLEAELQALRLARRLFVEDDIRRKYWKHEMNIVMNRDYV
Experiment: PFT inhibition, method not described here
Type: biochemical
Settings: value printed without citation or assay method; cited from earlier work

Question: For LN-59, which IC50 is on record?
Answer: Its IC50 is 35 nM.
